Assay results published in patent US6350585B1, “Reagent for assay of amylase isozyme activity” (priority 1998, dated 2002).

Assays:
[1] = biological target: T1, S-type amylase (Homo sapiens, UniProt P0DUB6); experiment: S-type amylase activity assay of serum by subtraction (reagent F minus reagent G); assay type: biochemical; details: for S-type amylase activity value: change in absorbance with reagent F minus reagent G; for Blank, change in absorbance per minute: distilled water as sample, compositions F and G
T1 construct: Serum (1, 2 or 3); from tissue; host or cells: serum
T1 sequence (P0DUB6 16-511): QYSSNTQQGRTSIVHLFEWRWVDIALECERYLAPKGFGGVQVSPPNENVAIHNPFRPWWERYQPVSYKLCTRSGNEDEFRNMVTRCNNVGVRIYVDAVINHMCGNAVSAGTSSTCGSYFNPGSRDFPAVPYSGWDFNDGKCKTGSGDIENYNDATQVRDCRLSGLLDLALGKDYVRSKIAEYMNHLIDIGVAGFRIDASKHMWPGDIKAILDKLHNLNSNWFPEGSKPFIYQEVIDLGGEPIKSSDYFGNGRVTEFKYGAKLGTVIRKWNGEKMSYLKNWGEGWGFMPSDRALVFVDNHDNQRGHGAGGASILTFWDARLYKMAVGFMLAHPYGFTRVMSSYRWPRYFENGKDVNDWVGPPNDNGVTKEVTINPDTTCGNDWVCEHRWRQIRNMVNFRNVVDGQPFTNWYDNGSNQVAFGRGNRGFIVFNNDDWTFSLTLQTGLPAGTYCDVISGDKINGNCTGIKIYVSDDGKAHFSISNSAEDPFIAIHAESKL
Protocol: Potassium thiocyanate 140 mM
(§1) Substrate (GalG2CNP (Example) or G3CNP (Comparative Example)) 2.6 mM
S-type amylase inhibitory antibody 88E8 (manufactured by Roche Diagnostics K.K.) 15 mg/L
S-type amylase inhibitory antibody 66C7 (manufactured by Roche Diagnostics K.K.) 1.25 mg/L
(1) Distilled Water(Blank)
Each of the above-mentioned reagents (0.05 mL) was added to the above reagent F (3 mL) and the mixtures were left standing at 37° C. for 3 minutes. Then, change in absorbance at 405 nm was assayed and change in absorbance per minute was calculated (change in absorbance a). The same procedure was repeated using reagent G and change in absorbance per minute was calculated (change in absorbance b). Then, change in absorbance b was subtracted from change in absorbance a to give change in absorbance c, which was converted to S-type amylase activity value at this composition using the molecular extinction coefficient of CNP.

[2] = biological target: T2, P-type amylase (Calibzyme P) (Homo sapiens, UniProt P04746); experiment: amylase isozyme activity assay with sodium azide as activator, P-type amylase sample; assay type: biochemical; details: for Percent residual enzyme activity: composition C/D
T2 construct: purchased International Reagents Corporation Calibzyme P
T2 sequence (P04746 16-511): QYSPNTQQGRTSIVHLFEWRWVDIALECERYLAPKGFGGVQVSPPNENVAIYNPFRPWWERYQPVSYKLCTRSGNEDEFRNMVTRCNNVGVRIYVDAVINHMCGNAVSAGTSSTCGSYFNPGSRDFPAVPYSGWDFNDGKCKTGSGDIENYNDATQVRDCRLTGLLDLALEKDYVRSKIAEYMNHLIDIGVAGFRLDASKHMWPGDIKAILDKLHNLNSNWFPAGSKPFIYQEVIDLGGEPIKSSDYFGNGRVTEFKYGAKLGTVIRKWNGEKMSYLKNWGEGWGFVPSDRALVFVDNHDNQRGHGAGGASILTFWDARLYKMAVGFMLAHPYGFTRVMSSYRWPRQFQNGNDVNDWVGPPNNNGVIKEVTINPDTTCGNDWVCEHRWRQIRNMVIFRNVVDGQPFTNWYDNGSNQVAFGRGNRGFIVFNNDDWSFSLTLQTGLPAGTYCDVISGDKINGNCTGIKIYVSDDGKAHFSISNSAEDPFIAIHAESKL
Protocol: S-type amylase inhibitory antibody 88E8 (manufactured by Roche Diagnostics K.K.) 20 mg/L
S-type amylase inhibitory antibody 66C7 (manufactured by Roche Diagnostics K.K.) 5 mg/L
as §1
(2) P-type Amylase (Calibzyme P, Manufactured by International Reagents Corporation)
Each of the above-mentioned samples (0.05 mL) was added to respective reagent C and D (3 mL) and the mixtures were left standing at 37° C. for 3 minutes. Then, change in absorbance at 405 nm was assayed and change in absorbance per minute was calculated.
In the Tables, P is the case where P-type amylase was used as the sample, and S is the case where S-type amylase was used. The relative sensitivity of P and S is based on the change in absorbance of G3CNP as 100, wherein sodium azide was 300 mM.
Percent residual enzyme activity and relative sensitivity were calculated by the following formulas.
Percent residual enzyme activity (%)=(change in absorbance of composition C)/(change in absorbance of composition D)×100
Relative sensitivity (%)=(change in absorbance of composition D)/(change in absorbance of Comparative Example wherein sodium azide was 300 mM)×100

[3] = sodium azide 0 mM, G3CNP at 300 mM = 100
[4] = sodium azide 30 mM, G3CNP at 300 mM = 100
[5] = sodium azide 60 mM, G3CNP at 300 mM = 100
[6] = sodium azide 90 mM, G3CNP at 300 mM = 100
[7] = sodium azide 120 mM, G3CNP at 300 mM = 100
[8] = sodium azide 150 mM, G3CNP at 300 mM = 100
[9] = sodium azide 200 mM, G3CNP at 300 mM = 100
[10] = sodium azide 250 mM, G3CNP at 300 mM = 100
[11] = sodium azide 300 mM, G3CNP at 300 mM = 100

O=[N+]([O-])c1ccc(O[C@H]2O[C@H](CO)[C@@H](O[C@H]3O[C@H](CO)[C@@H](O[C@H]4O[C@H](CO)[C@@H](O)[C@H](O)[C@H]4O)[C@H](O)[C@H]3O)[C@H](O)[C@H]2O)c(Cl)c1 [Example G3CNP, 2-chloro-4-nitrophenylmaltotrioside, reference compound]
S-type amylase activity value ([1]; Serum 1): 23.4 IU/L | S-type amylase activity value ([1]; Serum 2): 87.5 IU/L | S-type amylase activity value ([1]; Serum 3): 71.9 IU/L | Blank, change in absorbance per minute [1]: 0.0006 ABS/min | Change in absorbance, Containing Antibody (Composition C) ([2]; sodium azide 0 mM): 9.4 mABS/min | Change in absorbance, Without antibody (Composition D) ([2]; sodium azide 0 mM): 9.4 mABS/min | Relative sensitivity [2, 3]: 20.6% | Percent residual enzyme activity ([2]; sodium azide 0 mM): 100.0% | Change in absorbance, Containing Antibody (Composition C) ([2]; sodium azide 30 mM): 19.8 mABS/min | Change in absorbance, Without antibody (Composition D) ([2]; sodium azide 30 mM): 20.5 mABS/min | Relative sensitivity [2, 4]: 45.0% | Relative sensitivity ([2]; sodium azide 30 mM, G3CNP at 300 mM = 100, listed as Comparative Example 2): about 45% | Percent residual enzyme activity ([2]; sodium azide 30 mM): 96.6% | Change in absorbance, Containing Antibody (Composition C) ([2]; sodium azide 60 mM): 26.3 mABS/min | Change in absorbance, Without antibody (Composition D) ([2]; sodium azide 60 mM): 26.0 mABS/min | Relative sensitivity [2, 5]: 57.0% | Percent residual enzyme activity ([2]; sodium azide 60 mM): 101.2% | Change in absorbance, Containing Antibody (Composition C) ([2]; sodium azide 90 mM): 31.8 mABS/min | Change in absorbance, Without antibody (Composition D) ([2]; sodium azide 90 mM): 32.0 mABS/min | Relative sensitivity [2, 6]: 70.2% | Percent residual enzyme activity ([2]; sodium azide 90 mM): 99.4% | Change in absorbance, Containing Antibody (Composition C) ([2]; sodium azide 120 mM): 35.3 mABS/min | Change in absorbance, Without antibody (Composition D) ([2]; sodium azide 120 mM): 33.7 mABS/min | Relative sensitivity [2, 7]: 73.9% | Percent residual enzyme activity ([2]; sodium azide 120 mM): 104.7% | Change in absorbance, Containing Antibody (Composition C) ([2]; sodium azide 150 mM): 37.5 mABS/min | Change in absorbance, Without antibody (Composition D) ([2]; sodium azide 150 mM): 37.1 mABS/min | Relative sensitivity [2, 8]: 81.4% | Percent residual enzyme activity ([2]; sodium azide 150 mM): 101.1% | Change in absorbance, Containing Antibody (Composition C) ([2]; sodium azide 200 mM): 40.9 mABS/min | Change in absorbance, Without antibody (Composition D) ([2]; sodium azide 200 mM): 41.3 mABS/min | Relative sensitivity [2, 9]: 90.6% | Percent residual enzyme activity ([2]; sodium azide 200 mM): 99.0% | Change in absorbance, Containing Antibody (Composition C) ([2]; sodium azide 250 mM): 43.6 mABS/min | Change in absorbance, Without antibody (Composition D) ([2]; sodium azide 250 mM): 42.8 mABS/min | Relative sensitivity [2, 10]: 93.9% | Percent residual enzyme activity ([2]; sodium azide 250 mM): 101.9% | Change in absorbance, Containing Antibody (Composition C) ([2]; sodium azide 300 mM): 45.4 mABS/min | Change in absorbance, Without antibody (Composition D) ([2]; sodium azide 300 mM): 45.6 mABS/min | Relative sensitivity [2, 11]: 100.0% | Percent residual enzyme activity ([2]; sodium azide 300 mM): 99.6%

O=[N+]([O-])c1ccc(O[C@H]2O[C@H](CO)[C@@H](O[C@H]3O[C@H](CO)[C@@H](O[C@@H]4O[C@H](CO)[C@H](O)[C@H](O)[C@H]4O)[C@H](O)[C@H]3O)[C@H](O)[C@H]2O)c(Cl)c1 [GalG2CNP, 2-chloro-4-nitrophenyl 4-O-β-D-galactopyranosylmaltoside]
S-type amylase activity value ([1]; Serum 1): 44.8 IU/L | S-type amylase activity value ([1]; Serum 2): 167.7 IU/L | S-type amylase activity value ([1]; Serum 3): 140.7 IU/L | sensitivity (change in absorbance) compared with Comparative Example ([1]; Table 6, serum samples): superior sensitivity | Blank, change in absorbance per minute [1]: 0.0003 ABS/min | Change in absorbance, Containing Antibody (Composition C) ([2]; sodium azide 0 mM): 26.4 mABS/min | Change in absorbance, Without antibody (Composition D) ([2]; sodium azide 0 mM): 26.3 mABS/min | Relative sensitivity [2, 3]: 57.7% | Percent residual enzyme activity ([2]; sodium azide 0 mM): 100.4% | Change in absorbance, Containing Antibody (Composition C) ([2]; sodium azide 30 mM): 43.6 mABS/min | Change in absorbance, Without antibody (Composition D) ([2]; sodium azide 30 mM): 44.6 mABS/min | Relative sensitivity [2, 4]: 97.8% | Relative sensitivity ([2]; sodium azide 30 mM, G3CNP at 300 mM = 100, listed as Example): about 98% | Percent residual enzyme activity ([2]; sodium azide 30 mM): 97.8% | Change in absorbance, Containing Antibody (Composition C) ([2]; sodium azide 60 mM): 52.5 mABS/min | Change in absorbance, Without antibody (Composition D) ([2]; sodium azide 60 mM): 52.8 mABS/min | Relative sensitivity [2, 5]: 115.8% | Percent residual enzyme activity ([2]; sodium azide 60 mM): 99.4% | Change in absorbance, Containing Antibody (Composition C) ([2]; sodium azide 90 mM): 60.1 mABS/min | Change in absorbance, Without antibody (Composition D) ([2]; sodium azide 90 mM): 59.6 mABS/min | Relative sensitivity [2, 6]: 130.7% | Percent residual enzyme activity ([2]; sodium azide 90 mM): 100.8% | Change in absorbance, Containing Antibody (Composition C) ([2]; sodium azide 120 mM): 64.9 mABS/min | Change in absorbance, Without antibody (Composition D) ([2]; sodium azide 120 mM): 63.4 mABS/min | Relative sensitivity [2, 7]: 139.0% | Percent residual enzyme activity ([2]; sodium azide 120 mM): 102.4% | Change in absorbance, Containing Antibody (Composition C) ([2]; sodium azide 150 mM): 68.2 mABS/min | Change in absorbance, Without antibody (Composition D) ([2]; sodium azide 150 mM): 68.4 mABS/min | Relative sensitivity [2, 8]: 150.0% | Percent residual enzyme activity ([2]; sodium azide 150 mM): 99.7% | Change in absorbance, Containing Antibody (Composition C) ([2]; sodium azide 200 mM): 72.2 mABS/min | Change in absorbance, Without antibody (Composition D) ([2]; sodium azide 200 mM): 70.1 mABS/min | Relative sensitivity [2, 9]: 153.7% | Percent residual enzyme activity ([2]; sodium azide 200 mM): 103.0% | Change in absorbance, Containing Antibody (Composition C) ([2]; sodium azide 250 mM): 74.4 mABS/min | Change in absorbance, Without antibody (Composition D) ([2]; sodium azide 250 mM): 72.4 mABS/min | Relative sensitivity [2, 10]: 158.8% | Percent residual enzyme activity ([2]; sodium azide 250 mM): 102.8% | Change in absorbance, Containing Antibody (Composition C) ([2]; sodium azide 300 mM): 76.8 mABS/min | Change in absorbance, Without antibody (Composition D) ([2]; sodium azide 300 mM): 75.6 mABS/min | Relative sensitivity [2, 11]: 165.8% | Percent residual enzyme activity ([2]; sodium azide 300 mM): 101.6%
